# Measurements published in ChEMBL document CHEMBL5726876, “NHE3-binding compounds and methods for inhibiting phosphate transport” (2019).
# pIC50: −log10 of the molar value. Values joined by “and” are separate entries in the source; they are usually repeats but may differ in a detail not shown here. Identical values can stand only once.
# Assay: Cell-based activity under Prompt Conditions: Cell-based activity under Prompt Conditions. Rat or human NHE3-mediated Na+-dependent H+ antiport was measured using a modification of the pH sensitive dye method originally reported by Paradiso (PNAS USA. 81:7436-7440, 1984). Opossum kidney (OK) cells were obtained from the ATCC and propagated per their instructions. The rat NHE3 gene (GenBank M85300) or the human NHE3 gene (GenBank NM_004174.1) was introduced into OK cells via electroporation, and cells were seeded into 96 well plates and grown overnight. Medium was aspirated from the wells, cells were washed twice with NaCl-HEPES buffer (100 mM NaCl, 50 mM HEPES, 10 mM glucose, 5 mM KCl, 2 mM CaCl2, 1 mM MgCl2, pH 7.4), then incubated for 30 min at room temperature with NH4Cl-HEPES buffer (20 mM NH4Cl, 80 mM NaCl, 50 mM HEPES, 5 mM KCl, 2 mM CaCl2, 1 mM MgCl2, pH 7.4) containing 5 μM bis(acetoxymethyl) 3,3′-(3′,6′-bis(acetoxymethoxy)-5-((acetoxymethoxy)carbonyl)-3-oxo-3H-spiro[isobenzofuran-1,9′-xanthene]-2′,7′-diyl)dipropanoate (BCECF-AM).Cells were washed twice with Ammonium free, Na+-free HEPES (100 mM choline, 50 mM HEPES, 10 mM glucose, 5 mM KCl, 2 mM CaCl2, 1 mM MgCl2, pH 7.4) and incubated in the same buffer for 10 minutes at room temperature to lower intracellular pH. […] Initial rates were plotted as the average 2 or more replicates, and pIC50 values were estimated using GraphPad Prism.
row,Structure (SMILES),pIC50
1,CN1Cc2c(Cl)cc(Cl)cc2C(c2cccc(S(N)(=O)=O)c2)C1 (configuration not stated),6.60
2,NCCOCCOCCN1CCN(c2ccc(-c3nc(N=C(N)N)nc4ccc(Cl)cc34)cc2)CC1,7.00
3,N=C(N)Nc1nc(-c2ccc(N3CCN(CCOCCOCCOCCNC(=O)NCCOCCOCCNC(=O)NCCOCCOCCOCCN4CCN(c5ccc(-c6nc(NC(=N)N)nc7ccc(Cl)cc67)cc5)CC4)CC3)cc2)c2cc(Cl)ccc2n1,7.30
4,C/C(=C\c1cc(F)c(Oc2ccc(S(=O)(=O)NCCOCCOCCOCCNC(=O)N3CCN(C(=O)NCCOCCOCCOCCNS(=O)(=O)c4ccc(Oc5c(F)cc(/C=C(\C)C(=O)N=C(N)N)cc5F)cc4)CC3)cc2)c(F)c1)C(=O)N=C(N)N,7.70
5,NC(N)=Nc1nc(-c2ccc(N3CCN(CCOCCOCCNC(=O)[C@H](O)[C@@H](O)C(=O)NCCOCCOCCN4CCN(c5ccc(-c6nc(N=C(N)N)nc7ccc(Cl)cc67)cc5)CC4)CC3)cc2)c2cc(Cl)ccc2n1,7.10
6,NCCOCCOCCN1CCN(c2cccc(-c3nc(N=C(N)N)nc4ccc(Cl)cc34)c2)CC1,6.70
7,N=C(N)Nc1nc(-c2ccc(S(=O)(=O)NCCOCCOCCN)cc2)c2cc(Cl)ccc2n1,6.90
8,N=C(N)Nc1nc(-c2cccc(S(=O)(=O)NCCOCCOCCN)c2)c2cc(Cl)ccc2n1,6.30
9,C/C(=C\c1cc(F)c(Oc2ccc(S(=O)(=O)NCCOCCOCCOCCN)cc2)c(F)c1)C(=O)N=C(N)N,6.90
10,NCCOCCOCCOc1ccc(-c2nc(N=C(N)N)nc3ccc(Cl)cc23)cc1,6.95
11,N=C(N)Nc1nc(-c2cccc(S(=O)(=O)NCCOCCOCCOCCN)c2)c2cc(Cl)ccc2n1,6.10
12,C/C(=C\c1cc(F)c(Oc2ccc(S(=O)(=O)NCCOCCOCCOCCNC(=O)OCCOCCOCCOC(=O)NCCOCCOCCOCCNS(=O)(=O)c3ccc(Oc4c(F)cc(/C=C(\C)C(=O)N=C(N)N)cc4F)cc3)cc2)c(F)c1)C(=O)N=C(N)N,7.50
13,CN(CC(=O)NCCOCCOCCNS(=O)(=O)c1ccc(O[C@H]2c3ccccc3C[C@@H]2N2CCCCC2)cc1)CC(=O)NCCOCCOCCNS(=O)(=O)c1ccc(O[C@H]2c3ccccc3C[C@@H]2N2CCCCC2)cc1,7.45
14,N=C(N)Nc1nc(-c2ccc(OCCOCCOCCOCCN)cc2)c2cc(Cl)ccc2n1,7.50
15,NCCOCCOCCOCCN1CCN(c2ccc(-c3nc(N=C(N)N)nc4ccc(Cl)cc34)cc2)CC1,7.25 and 6.90
16,CN1Cc2c(Cl)cc(Cl)cc2[C@H](c2cccc(S(=O)(=O)NCCOCCOCCOCCN)c2)C1,7.34
17,C/C(=C\c1cc(F)c(Oc2ccc(S(=O)(=O)NCCOCCOCCOCCNC(=O)CN(CCN(CC(=O)O)CC(=O)NCCOCCOCCOCCNS(=O)(=O)c3ccc(Oc4c(F)cc(/C=C(\C)C(=O)N=C(N)N)cc4F)cc3)CC(=O)O)cc2)c(F)c1)C(=O)N=C(N)N,7.50
18,C/C(=C\c1cc(F)c(Oc2ccc(S(=O)(=O)NCCOCCOCCOCCNC(=O)N(C)CCCCN(C)C(=O)NCCOCCOCCOCCNS(=O)(=O)c3ccc(Oc4c(F)cc(/C=C(\C)C(=O)N=C(N)N)cc4F)cc3)cc2)c(F)c1)C(=O)N=C(N)N,7.80
19,CN1Cc2c(Cl)cc(Cl)cc2[C@@H](c2cccc(S(=O)(=O)NCCOCCOCCNC(=O)NCCCCNC(=O)NCCOCCOCCNS(=O)(=O)c3cccc([C@@H]4CN(C)Cc5c(Cl)cc(Cl)cc54)c3)c2)C1,7.30 and > 5.00
20,C/C(=C\c1cc(F)c(Oc2ccc(S(=O)(=O)NCCOCCOCCOCCNC(=O)[C@H](O)[C@@H](O)C(=O)NCCOCCOCCOCCNS(=O)(=O)c3ccc(Oc4c(F)cc(/C=C(\C)C(=O)N=C(N)N)cc4F)cc3)cc2)c(F)c1)C(=O)N=C(N)N,6.90
21,C/C(=C\c1cc(F)c(Oc2ccc(S(=O)(=O)NCCOCCOCCOCCNCc3ccc(CNCCOCCOCCOCCNS(=O)(=O)c4ccc(Oc5c(F)cc(/C=C(\C)C(=O)N=C(N)N)cc5F)cc4)cc3)cc2)c(F)c1)C(=O)N=C(N)N,6.70

row,Structure (SMILES),pIC50
1,C/C(=C\c1cc(F)c(Oc2ccc(S(=O)(=O)NCCOCCOCCOCCNC(=O)NCCCCNC(=O)NCCOCCOCCOCCNS(=O)(=O)c3ccc(Oc4c(F)cc(/C=C(\C)C(=O)N=C(N)N)cc4F)cc3)cc2)c(F)c1)C(=O)N=C(N)N,7.50
2,C/C(=C\c1cc(F)c(Oc2ccc(S(=O)(=O)NCCOCCOCCOCCNC(=O)NCCOCCOCCNC(=O)NCCOCCOCCOCCNS(=O)(=O)c3ccc(Oc4c(F)cc(/C=C(\C)C(=O)N=C(N)N)cc4F)cc3)cc2)c(F)c1)C(=O)N=C(N)N,7.00
3,NCCOCCOCCOc1cccc(-c2nc(N=C(N)N)nc3ccc(Cl)cc23)c1,6.65
4,COCCNS(=O)(=O)c1cccc(C2CN(C)Cc3c(Cl)cc(Cl)cc32)c1 (configuration not stated),6.70
5,C/C(=C\c1cc(F)c(Oc2ccc(S(=O)(=O)NCCOCCOCCOCCNC(=O)COCC(=O)NCCOCCOCCOCCNS(=O)(=O)c3ccc(Oc4c(F)cc(/C=C(\C)C(=O)N=C(N)N)cc4F)cc3)cc2)c(F)c1)C(=O)N=C(N)N,7.30
6,CN1Cc2c(Cl)cc(Cl)cc2[C@H](c2cccc(S(=O)(=O)NCCOCCOCCOCCNC(=O)COCC(=O)NCCOCCOCCOc3cccc(-c4nc(NC(=N)N)nc5ccc(Cl)cc45)c3)c2)C1,6.85
7,COCCNC(=O)CN(C)CC(=O)NCCOCCOCCNC(=O)NCCOCCOCCOCCOc1ccc(-c2nc(NC(=N)N)nc3ccc(Cl)cc23)cc1,7.90
8,CNC(=O)CN(CCN(CC(=O)O)CC(=O)NCCOCCOCCNC(=O)NCCOCCOCCOCCOc1cccc(-c2nc(NC(=N)N)nc3ccc(Cl)cc23)c1)CC(=O)O,7.70
9,COCCOCCOCCOCCC(=O)NCCOCCOCCOCCN1CCN(c2cccc(-c3nc(NC(=N)N)nc4ccc(Cl)cc34)c2)CC1,7.30
10,CCOCCOCCOCCNC(=O)CN(CCN(CC(=O)O)CC(=O)NCCOCCOCCOCCNS(=O)(=O)c1ccc(O[C@H]2c3ccccc3C[C@@H]2N2CCCCC2)cc1)CC(=O)O,7.65
11,COCCNC(=O)CN(C)CC(=O)NCCOCCOCCNC(=O)NCCOCCOCCOCCN1CCN(c2ccc(-c3nc(N=C(N)N)nc4ccc(Cl)cc34)cc2)CC1,7.50
12,COCCNC(=O)CN(C)CC(=O)NCCOCCOCCNC(=O)NCCOCCOCCOCCN1CCN(c2cccc(-c3nc(NC(=N)N)nc4ccc(Cl)cc34)c2)CC1,7.70
13,CCNC(=O)CCOCCOCCOCCOCCOCCC(=O)NCCOCCOCCOCCN1CCN(c2ccc(-c3nc(NC(=N)N)nc4ccc(Cl)cc34)cc2)CC1,7.68
14,COCCOCCOCCC(=O)NCCOCCOCCOCCN1CCN(c2cccc(-c3nc(NC(=N)N)nc4ccc(Cl)cc34)c2)CC1,6.87
15,CCCOCNC(=O)NCCCCNC(=O)NCCOCCOCCNC(=O)NCCOCCOCCN1CCN(c2cccc(-c3nc(N=C(N)N)nc4ccc(Cl)cc34)c2)CC1,7.60
16,CN(CCN(CC(=O)O)CC(=O)NCCOCCOCCNC(=O)NCCOCCOCCOCCN1CCN(c2ccc(-c3nc(N=C(N)N)nc4ccc(Cl)cc34)cc2)CC1)CC(=O)O,7.80
17,CN(CCN(CC(=O)O)CC(=O)NCCOCCOCCNC(=O)NCCOCCOCCOCCOc1ccc(-c2nc(NC(=N)N)nc3ccc(Cl)cc23)cc1)CC(=O)O,8.00
18,CCCCNC(=O)NCCOCCOCCNC(=O)NCCOCCOCCOCCOc1ccc(-c2nc(NC(=N)N)nc3ccc(Cl)cc23)cc1,7.60
19,CN(C)CC(=O)NCCOCCOCCNC(=O)NCCOCCOCCN1CCN(c2cccc(-c3nc(NC(=N)N)nc4ccc(Cl)cc34)c2)CC1,7.40
20,COCCNC(=O)CN(C)CC(=O)NCCOCCOCCNC(=O)NCCOCCOCCOCCOc1cccc(-c2nc(NC(=N)N)nc3ccc(Cl)cc23)c1,7.50
21,CCNC(=O)CN(C)CC(=O)NCCOCCOCCOCCNS(=O)(=O)c1ccc(Oc2c(F)cc(/C=C(\C)C(=O)N=C(N)N)cc2F)cc1,6.50
